One block for each compound: values may come before it.
What was measured:
bone marrow derived DCs = assay: IL-1β release from DCs (ELISA); format: cell-based, mouse; details: for IL-1β release: LPS-primed DCs
Description: NLRP3 KO and ASC KO mice were kindly provided by Dr. T. Horng, Harvard School of Public Health. Caspase-11 KO mice were kindly provided by Dr. Junying Yuan, Harvard Medical School. Caspase-1 single KO mice were kindly provided by Thirumala-Devi Kanneganti (St. Judes). DCs were differentiated from bone marrow in IMDM (Gibco), 10% B16-GM-CSF derived supernatant, 2 μM 2-mercaptoethanol and 10% FBS and used after 6 day of culture. […] MO were differentiated from bone marrow in DMEM (Gibco), 30% L929 supernatant, and 10% FBS. Immortal MΦs were cultured in DMEM supplemented with 10% L929 supernatant and 10% FBS. […] For experiments using pan-caspase inhibitor, cells were treated with zVADfmk (20 μM) 30 min before inflammasome activation stimuli addition. Cycloheximide (50 ng/ml) was added at the time of stimuli administration. Transfection with DOTAP was performed following the manufacturer instructions. […] 30 min later, the DOTAP/LPS or DOTAP/oxPAPC complex were added to the culture.
(§1) RNA was isolated from cell cultures using Qiashedder (Qiagen) and GeneJET RNA Purification Kit (Life Technologies). Purified RNA was analyzed for gene expression on a CFX384 real time cycler (Bio-rad) using TaqMan RNA-to-CT 1-Step Kit (Applied Biosystems) with probes purchased from Life Technologies specific for viperin (Mm00491265_m1), IFNb1 (Mm00439552_s1), IL6 (Mm00446190_m1), caspase-1 (Mm00438023_m1), caspase-11 (Mm00432307_m1), Nlrp3 (Mm00840904_m1), Asc (Mm00445747_g1), TBP (Mm00446971_m1) or GAPDH (Mm99999915_g1). ELISA for IL-1β, IL-2, IL-17, IL-18, TNFα and IFNγ were performed using Mouse Ready-SET-Go ELISA kits (eBioscience). To measure secreted cytokines, supernatant were collected, clarified by centrifugation and stored at −20° C. Cell associated cytokines were measured as follows: 96-well plates were centrifuged and supernatant was discarded. 250 μl of PBS were added to each well. Cells were frozen and thawed two times at −80° C. and then stored at −20° C. for further analysis.

inflammasome in DCs = assay: Inflammasome activation (FIGS. 6-42); format: cell-based
DCs = assay: TNFα secretion from DCs (ELISA); format: cell-based, mouse; details: LPS-primed DCs
Description: C57BL/6J (Jax 000664), C57BL/6NJ (Jax 005304), CD14 KO (Jax 003726), caspase-1/-11 dKO mice (Jax 016621), TLR4-mutant (C3H/HeJ, Jax 000659), and wild-type control for TLR4-mutant (C3H/HeSNJ, Jax 000661) were purchased from Jackson Labs. NLRP3 KO and ASC KO mice were kindly provided by Dr. T. Horng, Harvard School of Public Health. Caspase-11 KO mice were kindly provided by Dr. Junying Yuan, Harvard Medical School. Caspase-1 single KO mice were kindly provided by Thirumala-Devi Kanneganti (St. Judes). DCs were differentiated from bone marrow in IMDM (Gibco), 10% B16-GM-CSF derived supernatant, 2 μM 2-mercaptoethanol and 10% FBS and used after 6 day of culture. DC purity was assessed by flow cytometry and was usually higher than 90%. MO were differentiated from bone marrow in DMEM (Gibco), 30% L929 supernatant, and 10% FBS. Immortal MΦs were cultured in DMEM supplemented with 10% L929 supernatant and 10% FBS. Splenic DCs were purified as described previously (Zanoni et al., 2012). Prior to stimulations, cultured cells were washed and re-plated in DMEM supplemented with 10% FBS at a concentration of 1×10^6 cells/ml in a final volume of 100 μl. For experiments using pan-caspase inhibitor, cells were treated with zVADfmk (20 μM) 30 min before inflammasome activation stimuli addition. […]
as §1, with “To measure secreted cytokines, supernatant were collected, clarified by centrifugation and stored at −20° C.” left out, “250 μl of PBS were added to each well. Cells were frozen and thawed two times at −80° C. and then stored at −20° C. for further analysis.” left out

[1] = target: T1, catalytic mutant caspase-11 full length (C254A) (Mus musculus, UniProt P70343, C254A); assay: SPR analysis of lipid binding to immobilized full length caspase-11 (C254A)
T1 construct: recombinant catalytic mutant caspase-11 full length (C254A); His; made in house; host or cells: SF-21 insect cells (baculovirus)
T1 sequence (P70343 81-373 C254A): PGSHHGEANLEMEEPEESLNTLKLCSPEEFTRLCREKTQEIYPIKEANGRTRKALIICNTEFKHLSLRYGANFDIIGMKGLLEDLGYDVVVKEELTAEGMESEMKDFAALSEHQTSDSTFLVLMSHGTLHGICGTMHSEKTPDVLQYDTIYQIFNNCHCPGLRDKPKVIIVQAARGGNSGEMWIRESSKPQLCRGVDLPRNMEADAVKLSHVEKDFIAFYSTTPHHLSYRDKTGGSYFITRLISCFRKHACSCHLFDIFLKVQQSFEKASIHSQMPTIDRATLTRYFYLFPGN
Description: For studies to measure the direct binding of oxPAPC to caspase-11, proteins and SPR analysis was performed as described (Shi, J., et al., (2014b) Nature). Briefly, the recombinant catalytic mutant caspase-11 full length (C254A) and caspase-11 ΔN59 (C254A) were purified from P3 baculovirus infected SF-21 insect cells that were cultured in Sf900™ II SFM for 72 h at 28° C. Cells were lysed in lysis buffer containing 1% Triton X-100, 50 mM Tris-HCl (pH 7.6), 300 mM NaCl, 50 mM imidazole and 5 mM 2-mercaptoethanol. Ni-NTA beads (Qiagen) were used to purify His-tagged proteins from lysates. Proteins were released from the beads with elution buffer containing 50 mM Tris-HCl (pH 7.6), 250 mM imidazole and 300 mM NaCl. Imidazole was removed by dialysis. The proteins were further purified with HiTrap Q column and Superdex G200 column (GE Healthcare Life Sciences) to reach high homogeneity.
For surface plasmon resonance (SPR) analysis, BIAcore T100 SPR instrument (GE Healthcare) was used to measure the ligand binding kinetics. The assays were performed in a buffer containing 150 mM NaCl, 3 mM EDTA, 50 mM HEPES (pH 7.5) and 0.005% Tween-20 at 25° C. […] The KD values were calculated by fitting result curves (subtracted the control flow cell value) to a 1:1 Langmuir binding model with the BIAcore T100 evaluation software.

CD14 = target: T2, CD14 (Mus musculus, UniProt P10810); assay: CD14 endocytosis (surface staining, flow cytometry); format: cell-based; details: protein synthesis blocked with cycloheximide
T2 construct: endogenous in cells; host or cells: iMΦ, primary bone marrow derived MΦ and DCs
T2 sequence (P10810 16-336 limits assumed): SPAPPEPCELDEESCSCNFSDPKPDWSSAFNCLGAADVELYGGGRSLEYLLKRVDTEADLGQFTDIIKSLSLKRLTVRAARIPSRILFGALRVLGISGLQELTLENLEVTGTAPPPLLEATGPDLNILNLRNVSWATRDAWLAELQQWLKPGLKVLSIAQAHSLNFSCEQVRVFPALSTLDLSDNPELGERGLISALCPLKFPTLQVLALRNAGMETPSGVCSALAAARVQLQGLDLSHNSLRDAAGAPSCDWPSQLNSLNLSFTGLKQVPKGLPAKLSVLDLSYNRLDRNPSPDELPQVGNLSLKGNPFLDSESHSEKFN
Description: (§2) primary bone marrow derived MΦs and DCs or splenic DCs (0.5×10^6) of the indicated genotypes were treated with E. coli LPS, oxPAPC or chemical inhibitors for the indicated time points at 37° C. Cells were then washed with 1 mL cold PBS and stained for appropriate antibodies on ice for 20 to 30 minutes. 2% mouse serum or rat serum were used as the blocking reagent to reduce non-specific binding of the antibodies. The stained cells were then washed with 1 mL cold PBS and resuspended in 200 μL PBS. Staining of the surface receptors was analyzed with BD FACSCanto II. The mean fluorescence intensity (MFI) of CD14, TLR4 from unstimulated or stimulated cells was recorded. The percentage of surface receptor staining at indicated time points, which is the ratio of the MFI values measured from the stimulated cells to those measured from the unstimulated cells, was plotted to reflect the efficiency of receptor endocytosis. For measuring the extent of TLR4/MD-2 dimerization, the percentage of TLR4/MD2 dimer was calculated by 100%−the percentage of TLR4/MD-2 monomer. The percentage of the TLR4/MD-2 monomer was determined by the ratio of the MFI values (obtained from MTS510 antibody staining) of the stimulated cells to those of the unstimulated cells were indicated. Cells were stained with anti-MHC class II or anti-CD40 antibodies.

TLR4 = target: T3, TLR4 (Mus musculus, UniProt Q9JHF9+Q9QUK6); assay: TLR4 endocytosis (surface staining, flow cytometry); format: cell-based; details: cycloheximide treatment
T3 construct: endogenous in cells; host or cells: iMΦ, primary bone marrow derived MΦ and DCs
T3 sequence (Q9QUK6 26-835): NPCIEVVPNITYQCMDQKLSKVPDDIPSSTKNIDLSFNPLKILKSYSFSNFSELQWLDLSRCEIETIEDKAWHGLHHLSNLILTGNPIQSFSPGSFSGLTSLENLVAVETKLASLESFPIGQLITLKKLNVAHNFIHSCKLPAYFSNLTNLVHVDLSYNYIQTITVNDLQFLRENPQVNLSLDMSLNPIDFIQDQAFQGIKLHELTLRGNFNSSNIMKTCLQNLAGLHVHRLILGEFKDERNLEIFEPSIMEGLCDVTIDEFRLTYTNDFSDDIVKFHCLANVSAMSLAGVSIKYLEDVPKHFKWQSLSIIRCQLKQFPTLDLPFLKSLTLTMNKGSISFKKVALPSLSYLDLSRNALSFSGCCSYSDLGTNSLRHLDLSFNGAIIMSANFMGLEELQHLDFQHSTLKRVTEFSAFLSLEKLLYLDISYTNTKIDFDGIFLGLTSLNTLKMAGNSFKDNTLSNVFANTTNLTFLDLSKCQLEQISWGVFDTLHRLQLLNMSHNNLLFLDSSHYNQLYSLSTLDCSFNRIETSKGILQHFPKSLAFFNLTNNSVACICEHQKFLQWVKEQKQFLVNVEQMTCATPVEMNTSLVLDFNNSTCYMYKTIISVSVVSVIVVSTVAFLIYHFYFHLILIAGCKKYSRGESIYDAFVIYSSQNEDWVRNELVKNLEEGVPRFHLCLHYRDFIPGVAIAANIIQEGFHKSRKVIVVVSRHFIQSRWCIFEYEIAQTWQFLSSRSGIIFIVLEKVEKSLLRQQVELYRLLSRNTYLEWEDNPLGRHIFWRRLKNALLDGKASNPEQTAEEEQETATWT
T3 sequence (Q9JHF9 19-160): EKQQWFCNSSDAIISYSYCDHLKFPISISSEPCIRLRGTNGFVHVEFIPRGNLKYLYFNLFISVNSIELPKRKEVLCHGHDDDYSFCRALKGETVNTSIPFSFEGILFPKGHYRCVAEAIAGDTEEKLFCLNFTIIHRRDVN
Description: as §2

Structure (SMILES): CCN(CC)CCCC(C)Nc1ccnc2cc(Cl)ccc12 (stereo not drawn) [chloroquine]
IL-1β release from DCs (bone marrow derived DCs; chloroquine pre-treatment, LPS-primed, oxPAPC-treated): promoted slightly more release of IL-1β

Structure (SMILES): CCCCCCCCCCCCCCCC(=O)OC[C@H](COP(=O)([O-])OCC[N+](C)(C)C)OC(=O)CCCC(=O)/C=C/C(=O)O [KOdiA-PC, 1-(Palmitoyl)-2-(5-keto-6-octene-dioyl) phosphatidylcholine]
inflammasome activation (inflammasome in DCs): activated the inflammasome in DCs
IL-1β release (bone marrow derived DCs): able to elicit IL-1β secretion
TNFα release (DCs): not affected

binding to immobilized caspase-11(C254A) on SPR [1]: did not bind detectably
Structure (SMILES): CCCCCCCCCCCCCC(=O)OC[C@H](COP(=O)([O-])OCC[N+](C)(C)C)OC(=O)CCCCCCCCCCCCC [DMPC, 1,2-dimyristoyl-sn-glycero-3-phosphocholine]
IL-1β release (bone marrow derived DCs): unable to elicit IL-1β release
TNFα release (DCs): not affected

Structure (SMILES): C[C@@H]1C[C@@H]([C@H](O)CC2CC(=O)NC(=O)C2)C(=O)[C@@H](C)C1 [cycloheximide]
extent of oxPAPC- or LPS-induced CD14 endocytosis (CD14): enhanced
TLR4 internalization or dimerization (TLR4): did not affect

Reference: patent US12053522B2, “Pro-inflammatory and anti-cancer functions of toll-like receptor 4 antagonists” (Children's Medical Center Corporation, priority 2015, dated 2024)
